Columns and labels:
MDPC-23 cells [1] = assay: Viable cell number (Trypan Blue); format: cell-based; conditions: 24 h
Method: (§1) Immortalized odontoblast-like MDPC-23 cell line, frequently used for the evaluation of cytotoxicity of dental materials, was used to analyse the effect of different DMSO concentrations on pulpal cell viability. The cell culturing and methodology followed that described by Aranha et al. (2011). Briefly, DMEM culture medium with different concentrations of DMSO (0.05, 0.1, 0.3, 0.5 and 1.0 mM) were placed in contact with MDPC-23 cells (5×10^4 cells/cm^2) for 24 h. Pure DMEM was used in the control group. Twelve replicates were prepared in each group, except for flow cytometry analysis (n=8). Viable cell number (Trypan Blue), cell metabolism (production of succinic dehydrogenase enzyme-SDH, MTT assay) and cell death by necrosis (flow cytometry) were evaluated as described before (Ribeiro et al. 2010, Aranha et al. 2011).

MDPC-23 cells [2] = assay: Cell metabolism (SDH production, MTT assay); format: cell-based; conditions: 24 h
Method: as §1

MDPC-23 cells [3] = assay: Cell death by necrosis (flow cytometry); format: cell-based; conditions: 24 h
Method: as §1

[4] = system: gelatinases MMP-2 and MMP-9; assay: Gelatin zymography; format: biochemical, human
Method: Gelatin zymography was performed in 10% SDS-PAGE containing 1 mg/ml labelled gelatin in a usual fashion (Invitrogen, Carlsbad, Calif., USA) (O'Grady et al. 1984). After the electrophoresis, SDS was removed by 2.5% Triton X-100 to renature the gelatinases. Gels were then incubated overnight at 37° C. in 50 mM Tris-HCl buffer (5 mM CaCl2, 1 μM ZnCl2, 0.02% NaN3, pH 7.5) zymography incubation buffer with 0%, 0.1%, 2.5%, 5%, 10% or 20% of DMSO to observe the effect of DMSO concentration on the MMP activity. The degradation of gelatin was visualized under UV light. Gels were also stained with 0.5% Coomassie Blue R-250. The intensities of the bands were quantified by ScionImage software (Scion Corporation, Frederick, Mass., USA). The analysis was done as triplicates, and relative amounts against 0% DMSO were calculated.

MMP-2 [5] = target: T1, MMP-2 (Homo sapiens, UniProt P08253); assay: EnzChek Gelatinase/Collagenase Assay Kit; format: biochemical; conditions: 3% DMSO; APMA-activated MMP-2; 24 h incubation
T1 construct: made in house
T1 sequence (P08253 110-660): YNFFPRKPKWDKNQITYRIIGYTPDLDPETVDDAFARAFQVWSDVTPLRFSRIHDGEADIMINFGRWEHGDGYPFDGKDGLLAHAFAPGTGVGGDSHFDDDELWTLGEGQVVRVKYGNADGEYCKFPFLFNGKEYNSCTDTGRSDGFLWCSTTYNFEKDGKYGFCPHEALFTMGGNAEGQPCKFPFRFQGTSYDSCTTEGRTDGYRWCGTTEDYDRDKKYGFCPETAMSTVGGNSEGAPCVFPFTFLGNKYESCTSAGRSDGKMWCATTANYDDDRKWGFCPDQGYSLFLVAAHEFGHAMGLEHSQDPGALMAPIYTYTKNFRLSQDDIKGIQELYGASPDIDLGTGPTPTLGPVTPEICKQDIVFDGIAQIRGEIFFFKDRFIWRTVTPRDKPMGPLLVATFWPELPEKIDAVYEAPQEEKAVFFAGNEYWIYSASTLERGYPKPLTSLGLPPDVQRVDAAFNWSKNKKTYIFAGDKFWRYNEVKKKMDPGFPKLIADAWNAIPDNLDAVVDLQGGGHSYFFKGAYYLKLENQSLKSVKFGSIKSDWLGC
Method: (§2) EnzChek Gelatinase/Collagenase Assay Kit (Molecular Probes, Eugene, Oreg., USA) was used to detect the effect of DMSO on the gelatinolytic activities of MMP-2 and -9 according to manufacturer's protocol. Briefly, 3 ng of MMP-2 (purified from cell culture media), 3 ng MMP-9 (purified from cell culture media), and 5 ng of recombinant MMP-9 (Chemicon) were diluted into the reaction buffer (50 mM Tris-HCl, 150 mM NaCl, 5 mM CaCl2, 0.2 mM NaN3, pH 7.6) and incubated with quenched fluorescein-conjugated gelatin (50 μg/ml) and 0%, 0.01%, 0.1%, 0.5%, 1%, 2%, 3%, 4% or 5% of DMSO in a black-walled 96 well microplate at RT in dark. Fluorescent intensity indicating the gelatinolysis was measured at multiple time points with Fluoromax2/Micromax fluorometer (ISA Jobin Yvon-Spex, Edison, N.J., USA). Analyses were performed as quadruplicates. The relative intensities were calculated against 0% of DMSO.

MMP-2 [6] = assay: EnzChek Gelatinase/Collagenase Assay Kit; format: biochemical; conditions: 4 to 5% DMSO; non-activated (no APMA) and activated (APMA) MMP-2
Method: as §2

[7] = system: dentin collagenolytic enzymes; assay: Hydroxyproline release from demineralized dentin beams; format: biochemical
Method: Type I collagen contains about 10 mass % hydroxyproline (HYP), an amino acid almost non-existent in other proteins. Detection of HYP release form demineralized dentin beams was used to evaluate whether DMSO would be effective in inhibiting MMPs in dentin collagen matrix, using a method described in Carrilho et al. 2009. Seventy-six dentin beams (1 mm×1 mm×9 mm) were divided into four groups (n=19 per group) and demineralized. Each beam was individually incubated in a polypropylene tubes with 1 ml of medium containing 50 mmol/L HEPES, 5 mmol/L CaCl2 2H2O, 0.001 mmol/L ZnCl2, 150 mmol/L NaCl, and 3 mmol/L NaN3, pH 7.2, that ensures availability of Zn- and Ca-ions for MMP function. The control samples were incubated in a medium without DMSO: in two groups the beams were incubated with DMSO in medium with 0.001% and 0.01% concentrations. In one group, demineralized dentin beams were immersed in 5% DMSO for 15 minutes and then incubated in a medium without DMSO for the rest of the experiment. Tubes were incubated in a water-shaker bath at 37° C. for a week. Then the medium was completely removed and quantitated for HYP content according to the colorimetric absorbance method described by Jamall et al (1981). Fresh 1 mL of medium was replaced in each tube for additional three weeks of incubation, when the media was removed and analyzed for HYP content. HYP standards were prepared from a 1 mg/mL HYP stock solution in 50% isopropanol. The resulting amount of HYP (mg/mL) was used to estimate the percentage of solubilized (degraded) collagen assuming that 90% of the dry mass of demineralized dentin beams consisted of type I collagen and that 10 mass % of collagen is HYP (Carrilho et al. 2009).

## C[S+](C)[O-] [DMSO, dimethyl sulphoxide]
MDPC-23 cells [1]; 0.05 mM DMSO
  Cell number (viable cells, Trypan Blue): 3.7 (0.9) a
MDPC-23 cells [1]; 0.1 mM DMSO
  Cell number (viable cells, Trypan Blue): 4.3 (1.1) a
MDPC-23 cells [1]; 0.3 mM DMSO
  Cell number (viable cells, Trypan Blue): 4.1 (1.4) a
MDPC-23 cells [1]; 0.5 mM DMSO
  Cell number (viable cells, Trypan Blue): 4.1 (0.9) a
MDPC-23 cells [1]; 1.0 mM DMSO
  Cell number (viable cells, Trypan Blue): 4.1 (1.3) a
MDPC-23 cells [1]; 0.05-1.0 mM DMSO, p>0.05
  Number of cells vs control: no differences
MDPC-23 cells [1]; direct contact, 0.05-1.0 mM DMSO
  Cytotoxicity to odontoblast-like cells: not cytotoxic or cytophatic
MDPC-23 cells [2]; 0.05 mM DMSO
  Cell metabolism (SDH production, MTT assay): 2.343 (2.287-2.387) ab
MDPC-23 cells [2]; 0.1 mM DMSO
  Cell metabolism (SDH production, MTT assay): 2.468 (2.359-2.557) a
MDPC-23 cells [2]; 0.3 mM DMSO
  Cell metabolism (SDH production, MTT assay): 2.484 (2.399-2.520) a
MDPC-23 cells [2]; 0.5 mM DMSO
  Cell metabolism (SDH production, MTT assay): 2.478 (2.294-2.542) ab
MDPC-23 cells [2]; 1.0 mM DMSO
  Cell metabolism (SDH production, MTT assay): 2.410 (2.119-2.501) ab
MDPC-23 cells [2]; 0.05-1.0 mM DMSO, not concentration-dependent
  Production of SDH enzyme vs control: Slight increase
MDPC-23 cells [3]; 0.05 mM DMSO
  % Cell Death (necrosis, flow cytometry): 1.2 (0.8-1.6) a %
MDPC-23 cells [3]; 0.1 mM DMSO
  % Cell Death (necrosis, flow cytometry): 1.3 (0.9-1.6) a %
MDPC-23 cells [3]; 0.3 mM DMSO
  % Cell Death (necrosis, flow cytometry): 1.2 (0.6-1.6) a %
MDPC-23 cells [3]; 0.5 mM DMSO
  % Cell Death (necrosis, flow cytometry): 1.3 (0.8-1.5) a %
MDPC-23 cells [3]; 1.0 mM DMSO
  % Cell Death (necrosis, flow cytometry): 1.3 (0.8-1.6) a %
MDPC-23 cells [3]; 0.05-1.0 mM DMSO, p>0.05
  Cell death by necrosis vs control: no differences
[4]; 0.1-20% DMSO in incubation buffer, recombinant human MMP-2 and MMP-9
  Effect on gelatinase activity (disappearance of bands): inhibitory activity
[4]; 5% DMSO (FIG. 12, FIG. 13)
  MMP inhibition: up to 75.3%
[4]; 20% DMSO (FIG. 12, FIG. 13)
  MMP inhibition: up to 94.7%
MMP-2 [5]
  Inhibition of MMP-2 gelatinolytic activity: statistically significant inhibition
MMP-2 [6]
  Inhibition of MMP-2 gelatinolytic activity: theoretical maximum inhibition
[7]; 0.001% DMSO in medium, 4-week incubation
  HYP release into the medium: significantly decreased
[7]; 0.01% DMSO in medium, 4-week incubation
  HYP release into the medium: significantly decreased
[7]; 15 minute immersion in 5% DMSO prior the 4-week incubation
  HYP release into the medium: significantly decreased
[7]; DMSO (FIG. 14)
  Demineralized dentin collagen degradation by matrix enzymes: significant decrease in collagen degradation

Source: patent US20140050674A1, “Method for Improving Penetration or Long Term Adhesion of Compositions to Dental Tissues and Compositions Usable in Said Method” (University of Oulu, priority 2011, published 2014)
